# Experimental data reported in patent US20210300940A1 (Merck Patent GmbH, priority 2018, published 2021).
# Where a name gives a salt, the structure may show the parent alone.
# Columns and labels:
# [1] = molecular target: T1, TLR7 (Homo sapiens, UniProt Q9NYK1); assay: HEK/293 TLR7 Cell Assay; type: cell-based; details: TLR7/NFKb HEK cells, R848 agonist 10 uM final concentration, Steady-Glo readout; read-out: TLR7 potency
# T1 construct: expressed in transfected cells; host or cells: HEK/293 cells carrying TLR7 and an NF-kB luciferase reporter
# T1 sequence (Q9NYK1 27-1049): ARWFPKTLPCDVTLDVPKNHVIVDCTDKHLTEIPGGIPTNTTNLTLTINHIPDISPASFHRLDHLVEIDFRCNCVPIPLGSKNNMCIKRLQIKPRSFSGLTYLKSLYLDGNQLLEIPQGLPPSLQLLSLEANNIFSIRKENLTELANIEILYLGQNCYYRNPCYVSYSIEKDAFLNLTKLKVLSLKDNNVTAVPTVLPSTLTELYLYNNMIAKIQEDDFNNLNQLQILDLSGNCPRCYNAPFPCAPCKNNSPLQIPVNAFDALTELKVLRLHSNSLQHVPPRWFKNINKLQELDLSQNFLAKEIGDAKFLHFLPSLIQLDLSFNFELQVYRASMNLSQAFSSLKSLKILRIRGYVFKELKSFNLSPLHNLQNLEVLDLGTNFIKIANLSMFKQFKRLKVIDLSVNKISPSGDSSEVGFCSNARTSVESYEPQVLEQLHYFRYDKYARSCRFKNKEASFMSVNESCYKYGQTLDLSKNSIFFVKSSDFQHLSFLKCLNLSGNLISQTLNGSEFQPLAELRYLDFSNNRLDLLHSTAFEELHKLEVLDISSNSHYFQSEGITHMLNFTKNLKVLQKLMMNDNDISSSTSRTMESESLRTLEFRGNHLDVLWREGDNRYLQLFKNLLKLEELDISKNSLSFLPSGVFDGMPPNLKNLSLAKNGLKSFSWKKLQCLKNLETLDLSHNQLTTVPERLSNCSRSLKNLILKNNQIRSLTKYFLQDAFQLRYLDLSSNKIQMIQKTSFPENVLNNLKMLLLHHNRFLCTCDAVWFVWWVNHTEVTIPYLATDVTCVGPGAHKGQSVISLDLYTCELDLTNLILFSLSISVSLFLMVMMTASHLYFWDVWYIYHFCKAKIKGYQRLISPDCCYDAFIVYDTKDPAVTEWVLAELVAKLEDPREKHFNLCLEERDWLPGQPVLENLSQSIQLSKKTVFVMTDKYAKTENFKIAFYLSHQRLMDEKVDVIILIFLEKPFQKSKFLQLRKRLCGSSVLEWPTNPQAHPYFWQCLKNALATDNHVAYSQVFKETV
# How it was run: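 TLR7/NF-κB reporter HEK293 cells, 5000/well, cultured 24 h, then preincubated 30 min with compound before R848 agonist (10 uM final). After 5 h stimulation, Steady-Glo luciferase luminescence read.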
# [2] = molecular target: T2, TLR8 (Homo sapiens, UniProt Q9NR97); assay: HEK/293 TLR8 Cell Assay; type: cell-based; details: HEK cells, R848 agonist 30 uM final concentration, Steady-Glo readout; read-out: TLR8 potency
# T2 construct: expressed in transfected cells; host or cells: HEK/293 reporter cells (NF-kB luciferase)
# T2 sequence (Q9NR97 27-1041): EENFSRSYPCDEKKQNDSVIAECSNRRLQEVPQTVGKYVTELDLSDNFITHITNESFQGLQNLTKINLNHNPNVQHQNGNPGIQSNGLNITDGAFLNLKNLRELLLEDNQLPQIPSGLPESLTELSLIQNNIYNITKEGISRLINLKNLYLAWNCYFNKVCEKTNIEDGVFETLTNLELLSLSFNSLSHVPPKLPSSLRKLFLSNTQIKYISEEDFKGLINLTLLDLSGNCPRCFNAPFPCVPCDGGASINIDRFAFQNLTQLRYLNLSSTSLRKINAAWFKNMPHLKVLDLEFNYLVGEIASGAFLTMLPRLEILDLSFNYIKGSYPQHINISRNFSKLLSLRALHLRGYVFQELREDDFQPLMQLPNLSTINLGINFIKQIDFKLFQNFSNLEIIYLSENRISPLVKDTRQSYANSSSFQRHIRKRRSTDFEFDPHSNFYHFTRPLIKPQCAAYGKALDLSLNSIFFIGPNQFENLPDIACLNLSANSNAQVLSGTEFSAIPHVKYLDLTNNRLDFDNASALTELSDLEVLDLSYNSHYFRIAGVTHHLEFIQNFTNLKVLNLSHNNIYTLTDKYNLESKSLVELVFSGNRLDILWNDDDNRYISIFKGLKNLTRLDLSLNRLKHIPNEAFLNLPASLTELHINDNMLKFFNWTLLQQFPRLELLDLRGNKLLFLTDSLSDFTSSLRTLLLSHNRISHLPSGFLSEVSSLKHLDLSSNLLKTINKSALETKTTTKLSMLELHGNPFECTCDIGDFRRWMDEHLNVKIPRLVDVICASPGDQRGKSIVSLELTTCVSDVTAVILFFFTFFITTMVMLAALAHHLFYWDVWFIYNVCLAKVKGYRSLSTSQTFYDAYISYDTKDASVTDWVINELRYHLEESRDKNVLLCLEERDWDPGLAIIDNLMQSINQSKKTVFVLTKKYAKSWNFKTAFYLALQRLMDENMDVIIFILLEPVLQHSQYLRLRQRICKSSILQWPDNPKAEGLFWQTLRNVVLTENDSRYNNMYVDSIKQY
Structure (SMILES),IC50 [1] [nM],IC50 [2] [nM]
"C[C@H]1C[C@@H](NC(=O)NCCN(C)C)CN(c2ccc(C#N)c3nccnc23)C1 [Example 140, 1-[(3R,5S)-1-(8-cyanoquinoxalin-5-yl)-5-methylpiperidin-3-yl]-3-[2-(dimethylamino)ethyl]urea]",< 75,< 75
"C[C@H]1C[C@@H](NCC2COC2)CN(c2ccc(C#N)c3nccnc23)C1 [Example 47, 8-{(3S,5R)-3-Methyl-5-[(oxetan-3-ylmethyl)-amino]-piperidin-1-yl}-quinoxaline-5-carbonitrile]",< 75,< 75
"C[C@H]1C[C@@H](NC(=O)C[C@H]2CCNC[C@H]2F)CN(c2ccc(C#N)c3ncncc23)C1 [Example 132, N-[(3R,5S)-1-(8-cyanoquinazolin-5-yl)-5-methylpiperidin-3-yl]-2-[(3S,4R)-3-fluoropiperidin-4-yl]acetamide]",< 75,75 to 150
"C[C@@H]1CN(c2cnc(C#N)c3ncccc23)C[C@H](C(=O)NC2CCN(CC3CC3)C2)O1 (stereo partly drawn) [Example 272, (2R,6R)-4-(8-Cyano-[1,7]naphthyridin-5-yl)-6-methyl-morpholine-2-carboxylic acid (1-cyclopropylmethyl-pyrrolidin-3-yl)-amide]",< 75,< 75
"CC(C)(O)CNC(=O)[C@@H]1CN(c2ccc(C#N)c3nccnc23)C[C@H](C(F)(F)F)O1 (single isomer, unassigned) [Example 285]",> 150,> 150
"Cc1c(F)cc(N2C[C@@H](C)C[C@@H](NC(=O)CC3(O)CCN(C)CC3)C2)c2cccnc12 [Example 69, N-[(3R,5S)-1-(7-fluoro-8-methylquinolin-5-yl)-5-methylpiperidin-3-yl]-2-(4-hydroxy-1-methylpiperidin-4-yl)acetamide]",< 75,< 75
"N#Cc1ncc(N2C[C@@H](C(=O)NC[C@]3(F)CCNC3)O[C@@H](C(F)(F)F)C2)c2cccnc12 (single isomer, unassigned) [Example 319]",< 75,< 75
"C[C@@H]1CN(c2cnc(C#N)c3ncccc23)C[C@H](CN2CCN(CCO)CC2)O1 [Example 372, 5-{(2S,6R)-2-[4-(2-Hydroxy-ethyl)-piperazin-1-ylmethyl]-6-methyl-morpholin-4-yl}-[1,7]naphthyridine-8-carbonitrile]",75 to 150,< 75
"CN(C)CCNC(=O)N[C@@H]1C[C@H](C(F)(F)F)CN(c2ccc(C(F)(F)F)c3nccnc23)C1 [Example 142, 3-[2-(dimethylamino)ethyl]-1-[(3R,5S)-5-(trifluoromethyl)-1-[8-(trifluoromethyl)quinoxalin-5-yl]piperidin-3-yl]urea]",75 to 150,75 to 150
"C[C@H]1C[C@@H](NCC(C)(C)O)CN(c2ccc(C#N)c3nccnc23)C1 [Example 16, 8-[(3R,5S)-3-(2-Hydroxy-2-methyl-propylamino)-5-methyl-piperidin-1-yl]-quinoxaline-5-carbonitrile formic acid]",< 75,< 75
"N#Cc1ccc(N2C[C@H](N)CC(F)(F)C2)c2cccnc12 (single isomer, unassigned) [Example 197]",< 75,< 75
"C[C@@H](C(=O)N[C@@H]1C[C@H](C(F)(F)F)CN(c2ccc(C(F)(F)F)c3ncccc23)C1)N1CCN(C)CC1 (single isomer, unassigned) [Example 95]",< 75,< 75
"N#Cc1ccc(N2C[C@H](CN3CC(O)C3)O[C@H](C(F)(F)F)C2)c2nccnc12 (single isomer, unassigned) [Example 361]",< 75,75 to 150
"C[C@H]1C[C@@H](NC(=O)[C@@H](C)N2CCC(O)CC2)CN(c2ccc(C#N)c3nccnc23)C1 (single isomer, unassigned) [Example 103]",> 150,< 75
"N#Cc1ccc(N2C[C@@H](C(F)(F)F)O[C@@H](C(=O)NCC3(F)CCNCC3)C2)c2nccnc12 (single isomer, unassigned) [Example 305]",< 75,< 75
"C[C@H]1C[C@@H](NC(=O)CC2(O)CCN(C)CC2)CN(c2ccc(C#N)c3nccnc23)C1 [Example 72, N-[(3R,5S)-1-(8-cyanoquinoxalin-5-yl)-5-methylpiperidin-3-yl]-2-(4-hydroxy-1-methylpiperidin-4-yl)acetamide hydrochloride]",< 75,< 75
"C[C@H]1C[C@@H](NS(=O)(=O)NC(=O)CC2CCN(C)CC2)CN(c2ccc(C(F)(F)F)c3ncccc23)C1 [Example 202, N-{[(3R,5S)-5-methyl-1-[8-(trifluoromethyl)quinolin-5-yl]piperidin-3-yl]sulfamoyl}-2-(1-methylpiperidin-4-yl)acetamide]",75 to 150,< 75
"CC(C(=O)N[C@@H]1C[C@H](C)CN(c2ccc(C(F)(F)F)c3ncccc23)C1)N1CCC(O)CC1 (single isomer, unassigned) [Example 104]",< 75,< 75
"CC(C)[C@H](O)C(=O)N[C@@H]1C[C@H](C)CN(c2cnc(C#N)c3nccnc23)C1 [Example 196, (S)—N-[(3R,5S)-1-(5-Cyano-pyrido[3,4-b]pyrazin-8-yl)-5-methyl-piperidin-3-yl]-2-hydroxy-3-methyl-butyramide]",> 150,< 75
"C[C@H]1C[C@@H](n2ccnn2)CN(c2ccc(C#N)c3nccnc23)C1 (racemic) [Example 153, 8-[cis-3-methyl-5-(1H-1,2,3-triazol-1-yl)piperidin-1-yl]quinoxaline-5-carbonitrile]",> 150,< 75
"C[C@@H]1CN(c2ccc(C#N)c3nccnc23)C[C@H](C(=O)N[C@@H]2CCN(CC3CC3)C2)O1 [Example 323, (2R,6R)-4-(8-Cyano-quinoxalin-5-yl)-6-methyl-morpholine-2-carboxylic acid ((R)-cyclopropylmethyl-pyrrolidin-3-yl)-amide]",< 75,< 75
"CC(C(=O)N[C@@H]1C[C@H](C)CN(c2ccc(C#N)c3ncncc23)C1)N1CCN(C)CC1 (single isomer, unassigned) [Example 96]",75 to 150,> 150
"C[C@@H]1CN(c2ccc(C#N)c3nccnc23)C[C@H](C(=O)NC[C@H](O)CN(C)C)O1 (single isomer, unassigned) [Example 261]",< 75,< 75
"CCN(CC)CCO[C@@H]1C[C@H](C)CN(c2ccc(C(F)(F)F)c3ncccc23)C1 (relative stereo) [Example 4, diethyl(2-[[cis-5-methyl-1-[8-(trifluoromethyl)quinolin-5-yl]piperidin-3-yl]oxy]ethyl)amine]",> 150,< 75
